# Literature values in publication PMC12264960, “siRNA Interaction and Transfection Properties of Polycationic Phosphorus Dendrimers” (Biomacromolecules, 2025).
# Key:
# [1] = system: translation in the eukaryotic system; parameters: method as in earlier work; settings: ref [4]
# [2] = system: translation in the prokaryotic system; parameters: method as in earlier work; settings: ref [4]
compound,measurement,setting,value
NC1C(OCOC2C(N)[C@H](O[C@H]3C(N)C[C@H](N)C(O)C3O)OC(CO)[C@@H]2O)[C@H](O)C(CO)O[C@@H]1O[C@@H]1C(N)C[C@@H](N)C(O)C1O (some centres unmarked) [NB33],fold better inhibitor of translation compared to apramycin,[1],10 fold
same,times weaker inhibitor of translation compared to apramycin,[2],22 times
